Values belong to the compound of their own block, whether it stands above or below them.
Columns and labels:
Assay type in all cases: physicochemical
[1] = Measurement of water solubility; settings: saturated solution shaken at room temperature for 24 hours
Experimental: A liquid phase was taken out of the solution and filtered using a 0.22 μm PVDF filter. The filtered liquid phase was diluted 10-fold for LC analysis.
LC analysis was performed by the following method.

[2] = Physical stability evaluation under stress conditions
Experimental: In order to evaluate physical stability, samples were packaged in the form of ((LPDE+N2)+silica gel 1 g+LDPE)+Al-Bag, and stored under stress conditions (60° C.±2° C./80% RH±5%) for 2/4 weeks before evaluation.
In table 2, initial is a result measured after preparation of salts, and S2W and S4W are results measured after two and four weeks while being exposed to stress conditions, respectively.

[3] = Photostability evaluation
Text: Samples were packaged in LPDE bag, and stored under visible (1.2M Lux-h), UV (200 W-h/m2) and UV+visible conditions, respectively, and then evaluated.

[4] = Hygroscopicity evaluation; settings: for Individual related material: in %
Text: Samples were placed in a glass desiccator in which relative humidity was adjusted to 33%, 53%, 75%, and 93%, and then stored for two and four weeks to be evaluated.

Compound: C[C@@H]1CN(C(=O)CC#N)CC=C1c1cc(NC(=O)C2CC2)nc2[nH]ccc12 [Example 1, (S)—N-(4-(1-(2-cyanoacetyl)-3-methyl-1,2,3,6-tetrahydropyridin-4-yl)-1H-pyrrolo[2,3-b]pyridin-6-yl)cyclopropanecarboxamide]
Water solubility [1]: 5900 µg/mL
C.I quantitative ([2]; Initial): 9.2%
Content (anhydride, as anhydride) ([2]; Initial): 97.9%
Moisture ([2]; Initial): 3.33%
Purity: Individual related material ([2]; Initial): 0.13%
Purity: Total related material ([2]; Initial): 0.66%
C.I quantitative ([2]; S2W: 2 weeks at 60° C./80% RH): 9.1%
Content (anhydride, as anhydride) ([2]; S2W: 2 weeks at 60° C./80% RH): 98.0%
Purity: Individual related material ([2]; S2W: 2 weeks at 60° C./80% RH): 0.13%
Purity: Total related material ([2]; S2W: 2 weeks at 60° C./80% RH): 1.08%
C.I quantitative ([2]; S4W: 4 weeks at 60° C./80% RH): 9.1%
Content (anhydride, as anhydride) ([2]; S4W: 4 weeks at 60° C./80% RH): 98.6%
Purity: Individual related material ([2]; S4W: 4 weeks at 60° C./80% RH): 0.34%
Purity: Total related material ([2]; S4W: 4 weeks at 60° C./80% RH): 1.28%
Individual related material ([3]; Initial): 0.13%
Total related material ([3]; Initial): 0.66%
Individual related material ([3]; Solid, Control): 0.11%
Total related material ([3]; Solid, Control): 0.55%
Individual related material ([3]; Solid, UV (200 W-h/m2)): 0.36%
Total related material ([3]; Solid, UV (200 W-h/m2)): 2.31%
Individual related material ([3]; Solid, UV + Vis): 0.81%
Total related material ([3]; Solid, UV + Vis): 4.74%
Individual related material ([3]; Solid, UV + Vis Control): 0.12%
Total related material ([3]; Solid, UV + Vis Control): 0.65%
Individual related material ([3]; Solid, Vis (1.2M Lux-h)): 0.66%
Total related material ([3]; Solid, Vis (1.2M Lux-h)): 3.83%
Total related material ([4]; Initial): 0.66%
Water ([4]; Initial): 3.33%
Individual related material ([4]; Initial): 0.13
Total related material ([4]; relative humidity 33%, 2 W): 0.68%
Water ([4]; relative humidity 33%, 2 W): 5.22%
Individual related material ([4]; relative humidity 33%, 2 W): 0.12
Total related material ([4]; relative humidity 33%, 4 W): 0.62%
Water ([4]; relative humidity 33%, 4 W): 5.32%
Individual related material ([4]; relative humidity 33%, 4 W): 0.11
Total related material ([4]; relative humidity 53%, 2 W): 0.78%
Water ([4]; relative humidity 53%, 2 W): 5.21%
Individual related material ([4]; relative humidity 53%, 2 W): 0.12
Total related material ([4]; relative humidity 53%, 4 W): 0.78%
Water ([4]; relative humidity 53%, 4 W): 5.38%
Individual related material ([4]; relative humidity 53%, 4 W): 0.12
Total related material ([4]; relative humidity 75%, 2 W): 0.69%
Water ([4]; relative humidity 75%, 2 W): 5.24%
Individual related material ([4]; relative humidity 75%, 2 W): 0.12
Total related material ([4]; relative humidity 75%, 4 W): 0.68%
Water ([4]; relative humidity 75%, 4 W): 5.41%
Individual related material ([4]; relative humidity 75%, 4 W): 0.11
Total related material ([4]; relative humidity 93%, 2 W): 0.89%
Water ([4]; relative humidity 93%, 2 W): 5.37%
Individual related material ([4]; relative humidity 93%, 2 W): 0.12
Total related material ([4]; relative humidity 93%, 4 W): 0.94%
Water ([4]; relative humidity 93%, 4 W): 5.43%
Individual related material ([4]; relative humidity 93%, 4 W): 0.13

Compound: C[C@@H]1CN(C(=O)CC#N)CC=C1c1cc(NC(=O)C2CC2)nc2[nH]ccc12 [Example 5, (S)—N-(4-(1-(2-cyanoacetyl)-3-methyl-1,2,3,6-tetrahydropyridin-4-yl)-1H-pyrrolo[2,3-b]pyridin-6-yl)cyclopropanecarboxamide]
Water solubility [1]: 4600 µg/mL
Individual related material ([3]; Initial): 0.14%
Total related material ([3]; Initial): 0.64%
Individual related material ([3]; Solid, Control): 0.65%
Total related material ([3]; Solid, Control): 0.65%
Individual related material ([3]; Solid, UV (200 W-h/m2)): 1%
Total related material ([3]; Solid, UV (200 W-h/m2)): 1%
Individual related material ([3]; Solid, UV + Vis): 1.96%
Total related material ([3]; Solid, UV + Vis): 1.96%
Individual related material ([3]; Solid, UV + Vis Control): 0.78%
Total related material ([3]; Solid, UV + Vis Control): 0.78%
Individual related material ([3]; Solid, Vis (1.2M Lux-h)): 1.72%
Total related material ([3]; Solid, Vis (1.2M Lux-h)): 1.72%

Compound: C[C@@H]1CN(C(=O)CC#N)CC=C1c1cc(NC(=O)C2CC2)nc2[nH]ccc12 [Example 4, (S)—N-(4-(1-(2-cyanoacetyl)-3-methyl-1,2,3,6-tetrahydropyridin-4-yl)-1H-pyrrolo[2,3-b]pyridin-6-yl)cyclopropanecarboxamide]
Water solubility [1]: 1900 µg/mL
C.I quantitative ([2]; Initial): 40.3%
Content (anhydride, as anhydride) ([2]; Initial): 100.4%
Moisture ([2]; Initial): 0.67%
Purity: Individual related material ([2]; Initial): 0.13%
Purity: Total related material ([2]; Initial): 1.13%
C.I quantitative ([2]; S2W: 2 weeks at 60° C./80% RH): 40.3%
Content (anhydride, as anhydride) ([2]; S2W: 2 weeks at 60° C./80% RH): 101.9%
Purity: Individual related material ([2]; S2W: 2 weeks at 60° C./80% RH): 0.23%
Purity: Total related material ([2]; S2W: 2 weeks at 60° C./80% RH): 1.32%
C.I quantitative ([2]; S4W: 4 weeks at 60° C./80% RH): 40.6%
Content (anhydride, as anhydride) ([2]; S4W: 4 weeks at 60° C./80% RH): 101.9%
Moisture ([2]; S4W: 4 weeks at 60° C./80% RH): 0.98%
Purity: Individual related material ([2]; S4W: 4 weeks at 60° C./80% RH): 0.30%
Purity: Total related material ([2]; S4W: 4 weeks at 60° C./80% RH): 1.31%
Individual related material ([3]; Initial): 0.13%
Total related material ([3]; Initial): 1.13%
Individual related material ([3]; Solid, Control): 0.14%
Total related material ([3]; Solid, Control): 0.14%
Individual related material ([3]; Solid, UV (200 W-h/m2)): 0.13%
Total related material ([3]; Solid, UV (200 W-h/m2)): 0.27%
Individual related material ([3]; Solid, UV + Vis): 0.13%
Total related material ([3]; Solid, UV + Vis): 0.72%
Individual related material ([3]; Solid, UV + Vis Control): 0.14%
Total related material ([3]; Solid, UV + Vis Control): 0.14%
Individual related material ([3]; Solid, Vis (1.2M Lux-h)): 0.13%
Total related material ([3]; Solid, Vis (1.2M Lux-h)): 0.68%
Total related material ([4]; Initial): 1.13%
Water ([4]; Initial): 0.67%
Individual related material ([4]; Initial): 0.13
Total related material ([4]; relative humidity 33%, 2 W): 1.1%
Water ([4]; relative humidity 33%, 2 W): 0.56%
Individual related material ([4]; relative humidity 33%, 2 W): 0.14
Total related material ([4]; relative humidity 33%, 4 W): 1.07%
Water ([4]; relative humidity 33%, 4 W): 0.54%
Individual related material ([4]; relative humidity 33%, 4 W): 0.14
Total related material ([4]; relative humidity 53%, 2 W): 1.18%
Water ([4]; relative humidity 53%, 2 W): 0.80%
Individual related material ([4]; relative humidity 53%, 2 W): 0.15
Total related material ([4]; relative humidity 53%, 4 W): 1.04%
Water ([4]; relative humidity 53%, 4 W): 0.65%
Individual related material ([4]; relative humidity 53%, 4 W): 0.15
Total related material ([4]; relative humidity 75%, 2 W): 1.18%
Water ([4]; relative humidity 75%, 2 W): 1.44%
Individual related material ([4]; relative humidity 75%, 2 W): 0.15
Total related material ([4]; relative humidity 75%, 4 W): 1.18%
Water ([4]; relative humidity 75%, 4 W): 1.02%
Individual related material ([4]; relative humidity 75%, 4 W): 0.16
Total related material ([4]; relative humidity 93%, 2 W): 1.17%
Water ([4]; relative humidity 93%, 2 W): 2.03%
Individual related material ([4]; relative humidity 93%, 2 W): 0.16
Total related material ([4]; relative humidity 93%, 4 W): 1.15%
Water ([4]; relative humidity 93%, 4 W): 1.72%
Individual related material ([4]; relative humidity 93%, 4 W): 0.17

More lines, now with the values ahead:

Water solubility [1]: 5900 µg/mL
C.I quantitative ([2]; Initial): 18.1%
Content (anhydride, as anhydride) ([2]; Initial): 100.7%
Moisture ([2]; Initial): 3.93%
Purity: Individual related material ([2]; Initial): 0.12%
Purity: Total related material ([2]; Initial): 0.56%
C.I quantitative ([2]; S2W: 2 weeks at 60° C./80% RH): 17.8%
Content (anhydride, as anhydride) ([2]; S2W: 2 weeks at 60° C./80% RH): 101.4%
Moisture ([2]; S2W: 2 weeks at 60° C./80% RH): 3.93%
Purity: Individual related material ([2]; S2W: 2 weeks at 60° C./80% RH): 0.11%
Purity: Total related material ([2]; S2W: 2 weeks at 60° C./80% RH): 0.63%
C.I quantitative ([2]; S4W: 4 weeks at 60° C./80% RH): 17.8%
Content (anhydride, as anhydride) ([2]; S4W: 4 weeks at 60° C./80% RH): 99.2%
Moisture ([2]; S4W: 4 weeks at 60° C./80% RH): 3.79%
Purity: Individual related material ([2]; S4W: 4 weeks at 60° C./80% RH): 0.14%
Purity: Total related material ([2]; S4W: 4 weeks at 60° C./80% RH): 0.58%
Individual related material ([3]; Initial): 0.12%
Total related material ([3]; Initial): 0.56%
Individual related material ([3]; Solid, Control): 0.11%
Total related material ([3]; Solid, Control): 0.44%
Individual related material ([3]; Solid, UV (200 W-h/m2)): 0.11%
Total related material ([3]; Solid, UV (200 W-h/m2)): 0.6%
Individual related material ([3]; Solid, UV + Vis): 0.12%
Total related material ([3]; Solid, UV + Vis): 0.91%
Individual related material ([3]; Solid, UV + Vis Control): 0.12%
Total related material ([3]; Solid, UV + Vis Control): 0.48%
Individual related material ([3]; Solid, Vis (1.2M Lux-h)): 0.11%
Total related material ([3]; Solid, Vis (1.2M Lux-h)): 0.69%
Total related material ([4]; Initial): 0.56%
Water ([4]; Initial): 3.93%
Individual related material ([4]; Initial): 0.12
Total related material ([4]; relative humidity 33%, 2 W): 0.53%
Water ([4]; relative humidity 33%, 2 W): 3.70%
Individual related material ([4]; relative humidity 33%, 2 W): 0.11
Total related material ([4]; relative humidity 33%, 4 W): 0.55%
Water ([4]; relative humidity 33%, 4 W): 3.94%
Individual related material ([4]; relative humidity 33%, 4 W): 0.10
Total related material ([4]; relative humidity 53%, 2 W): 0.66%
Water ([4]; relative humidity 53%, 2 W): 3.62%
Individual related material ([4]; relative humidity 53%, 2 W): 0.12
Total related material ([4]; relative humidity 53%, 4 W): 0.59%
Water ([4]; relative humidity 53%, 4 W): 3.96%
Individual related material ([4]; relative humidity 53%, 4 W): 0.11
Total related material ([4]; relative humidity 75%, 2 W): 0.58%
Water ([4]; relative humidity 75%, 2 W): 3.78%
Individual related material ([4]; relative humidity 75%, 2 W): 0.11
Total related material ([4]; relative humidity 75%, 4 W): 0.61%
Water ([4]; relative humidity 75%, 4 W): 3.93%
Individual related material ([4]; relative humidity 75%, 4 W): 0.11
Total related material ([4]; relative humidity 93%, 2 W): 0.54%
Water ([4]; relative humidity 93%, 2 W): 3.71%
Individual related material ([4]; relative humidity 93%, 2 W): 0.11
Total related material ([4]; relative humidity 93%, 4 W): 0.62%
Water ([4]; relative humidity 93%, 4 W): 3.94%
Individual related material ([4]; relative humidity 93%, 4 W): 0.10
Compound: C[C@@H]1CN(C(=O)CC#N)CC=C1c1cc(NC(=O)C2CC2)nc2[nH]ccc12 [Example 2, (S)—N-(4-(1-(2-cyanoacetyl)-3-methyl-1,2,3,6-tetrahydropyridin-4-yl)-1H-pyrrolo[2,3-b]pyridin-6-yl)cyclopropanecarboxamide]

Water solubility [1]: 900 µg/mL
Compound: C[C@@H]1CN(C(=O)CC#N)CC=C1c1cc(NC(=O)C2CC2)nc2[nH]ccc12 [Example 6, (S)—N-(4-(1-(2-cyanoacetyl)-3-methyl-1,2,3,6-tetrahydropyridin-4-yl)-1H-pyrrolo[2,3-b]pyridin-6-yl)cyclopropanecarboxamide]
